In patent US20190015395A1, “TACROLIMUS FOR TREATING TDP-43 PROTEINOPATHY” (CHRONOS THERAPEUTICS LIMITED, priority 2016, published 2019):

Legend:
[1] = test system: TDP-43(Q331K) mice; experiment: Rotarod testing of TDP-43(Q331K) transgenic mice; assay type: in vivo, mouse
[2] = test system: control (GFP-expressing) C. elegans; experiment: C. elegans lifespan assay, control strain expressing GFP only; assay type: in vivo; conditions: 10 μg/ml in the NGM agar, vs DMSO vehicle, p<0.01
Experimental: A control C. elegans strain was generated in the same background, in which the GFP reporter only is expressed under the control of the myo-3 promoter.
These strains were crossed with worms carrying a mutation in the bus-5 gene, which confers drug-sensitivity, to produce drug-sensitive strains expressing GFP alone (“GFP”) or expressing the GFP-TDP-43 CTF fusion protein (“GFP-TDP-43(CTF)”).
C. elegans cultures were synchronised by incubating an asynchronous culture in basic sodium hypochlorite solution to kill everything but the bleach-resistant mature eggs. Approximately 300 eggs were added on to agar plates and then allowed to hatch and develop (to produce approximately 200 worms) in the presence of the test compound (or vehicle) and bacterial food source. […] From this point on, each ageing population was inspected daily and viability assessed by counting the number of dead worms.
(§1) The cumulative number of dead worms for each population was used to generate a survival/viability plot to determine chronological lifespan (CLS). Survival was analysed using the Kaplan-Meier log-rank survival analysis method, using the Online Application for Survival (OASIS; see http://sbi.postech.ac.kr/oasis). […]

[3] = test system: C. elegans expressing GFP-TDP-43(CTF) (C-terminal fragment of human TDP-43, aas 208-414) in the body wall muscle; experiment: C. elegans lifespan assay, strain expressing TDP-43 C-terminal fragment; assay type: in vivo; conditions: 10 μg/ml in the NGM agar, vs DMSO vehicle, p<0.005
Description: C-terminal fragments of TDP-43 are associated with pathology in ALS and FTD patients. In particular, proteolytic cleavage at Arg208 has been reported to generate a pathogenic C-terminal fragment (see Wang et al., 2013, J. Biol. Chem. 288(13):9049-57 and Igaz et al., 2009, J. Biol. Chem. 284(13):8516-24; the disclosures of which are incorporated herein by reference). Therefore, a transgenic C. elegans strain was generated that expresses the C-terminal fragment (CTF) of human TDP-43 (aas 208-414) in the body wall muscle, fused via a short linker region to the C-terminus of a GFP tag. Expression is under the control of the myo-3 promoter. […]
C. elegans cultures were synchronised by incubating an asynchronous culture in basic sodium hypochlorite solution to kill everything but the bleach-resistant mature eggs. […] From this point on, each ageing population was inspected daily and viability assessed by counting the number of dead worms.
as §1

[4] = test system: TNF-α; experiment: Blood TNF-α levels in healthy human volunteers; assay type: in vivo
Experimental: (§2) A hard gelatine capsule was filled with the following composition:
(§3) One capsule as above containing 0.3 mg tacrolimus was administered daily to healthy human volunteers for three successive days. […] Similarly, no change in TNF-α levels occurred as a result of administering 0.6 mg daily of tacrolimus to healthy volunteers. The average trough level of tacrolimus (level after 24 hours of administration of each dose) observed was approximately 220 pg/mL.

[5] = in vivo, 2 mg/kg/day
Experimental: Based on pharmacokinetic analysis, a tacrolimus dose of 2 mg/kg/day in the mouse is believed to correspond to a human oral dose of about 0.33-0.44 mg/day oral for a 70 kg person.

[6] = Tacrolimus blood levels in healthy human volunteers after capsule; assay type: in vivo
Experimental: as §2, §3

Compound	rotarod latency / decline in motor function ([1]; 10 mg/kg p.o. per day in water, up to 60 weeks, vs water-treated control)	lifespan (survival) of control GFP-expressing worms [2]	lifespan (survival) of control GFP-expressing worms ([2]; listed as Tacrolimus)	rotarod latency / decline in motor function ([1]; 0.25 mg/kg per day p.o., 60 weeks from 3 weeks of age, vs vehicle)	rotarod latency / decline in motor function ([1]; 0.25 mg/kg per day p.o., 60 weeks from 3 weeks of age, vs vehicle, listed as Tacrolimus)	rotarod latency / decline in motor function ([1]; 1.25 mg/kg per day p.o., 60 weeks from 3 weeks of age, vs vehicle)	rotarod latency / decline in motor function ([1]; 1.25 mg/kg per day p.o., 60 weeks from 3 weeks of age, vs vehicle, listed as Tacrolimus)	rotarod latency / decline in motor function ([1]; 2.5 mg/kg per day p.o., 60 weeks from 3 weeks of age, vs vehicle)	rotarod latency / decline in motor function ([1]; 2.5 mg/kg per day p.o., 60 weeks from 3 weeks of age, vs vehicle, listed as Tacrolimus)	lifespan (survival) of worms expressing the TDP-43 C-terminal fragment [3]	lifespan (survival) of worms expressing the TDP-43 C-terminal fragment ([3]; listed as Tacrolimus)	change in blood TNF-α levels ([4]; 0.3 mg capsule daily for three successive days)	change in TNF-α levels ([4]; 0.6 mg daily)	human oral dose corresponding to the mouse dose [5]	average peak level ([6]; 0.3 mg capsule daily for three days, healthy volunteers)	expected trough level ([6]; two capsules simultaneously, single dose of 0.6 mg)
Nc1nc2ccc(OC(F)(F)F)cc2s1 [riluzole]	delays the progression of the decline in rotarod performance															
C=CC[C@@H]1/C=C(\C)C[C@H](C)C[C@H](OC)[C@H]2O[C@@](O)(C(=O)C(=O)N3CCCC[C@H]3C(=O)O[C@H](/C(C)=C/[C@@H]3CC[C@@H](O)[C@H](OC)C3)[C@H](C)[C@@H](O)CC1=O)[C@H](C)C[C@@H]2OC [tacrolimus]		increasing the lifespan	significant increase in lifespan	delays the progression of motor decline	delays the progression of the decline in rotarod performance	delays the progression of motor decline	delays the progression of the decline in rotarod performance	delays the progression of motor decline	delays the progression of the decline in rotarod performance	partially rescuing the lifespan deficit	significant increase in lifespan	No significant changes	no change	0.33 to 0.44 mg/day	approximately 3700 pg/mL	about 440 pg/mL
